Where a name gives a salt, the structure may show the parent alone. Read-outs that look alike come from different tables or passages of the source.

One data set deals with T1, human PDE4B1 (Homo sapiens, UniProt Q07343).
T1 construct: host or cells: Sf9 cells
The data set is described as follows: cAMP HTRF assay to determine the activity of hPDE4B1. It is filed as biochemical. Conditions: read-out: PDE4B IC50. The protocol: 1. Determination of the PDE4B IC50 Values with a cAMP HRTF® Assay to Determine the Activity of hPDE4B1
The inhibiting effect of the compounds on the enzyme activity of human PDE4B1 is measured by the quantification of 5′-AMP, which is formed from 3′,5′-adenosine monophosphate (cAMP). Human recombinant enzyme, expressed in Sf9 cells, and the HTRF (homogeneous time-resolved fluorescence) detection method are used in the assay.
The test compound or water (control) is mixed with the human recombinant PDE4B1 enzyme (4.8 U) in a buffer consisting of 44.4 mM tris-HCl, 5.28 mM MgCl2, 2.64 mM DTT and 0.044% Tween 20 (pH 7.8). After adding the cAMP enzyme substrate (final concentration 40 nM) the mixture is incubated for 30 minutes at room temperature. Then a fluorescence acceptor (Dye2 marked with cAMP), a fluorescence donor (anti-cAMP antibody marked with a europium cryptate) and the non-specific phosphodiesterase inhibitor IBMX (3-isobutyl-1-methylxanthine; final concentration 1 mM) are added. After 60 minutes the fluorescence transfer, which correlates with the amount of remaining cAMP, is measured with a microplate reader (Rubystar, BMG) at λex=337 nm, λem=620 nm and λεm=665 nm. The enzyme activity is calculated from the quotient formed from the measured signal at 665 nm and that at 620 nm. The result is expressed as the percentage inhibition of enzyme activity of the control (without PDE4 inhibitor) (literature: N. Saldou et al., Comparison of recombinant human PDE4 isoforms: interaction with substrate and inhibitors, Cell. Signal. Vol. 10, No. 6, 427-440, 1998). The enzyme is omitted for measurement of the basal control. The averaged results are set out in Table 5.
For orientation: Time-resolved FRET reads energy transfer from a long-lived donor to a nearby acceptor.

The target of another data set is human recombinant PDE4D2 (Homo sapiens, UniProt Q08499). The data set is described as follows: cAMP HTRF assay to determine the activity of hPDE4D2. Type of data set: biochemical. On the procedure: 2. Determination of the PDE4D-IC50 Values with a cAMP HRTF® Assay to Determine the Activity of hPDE4D2
Sequence of human recombinant PDE4D2 (Q08499 303-809): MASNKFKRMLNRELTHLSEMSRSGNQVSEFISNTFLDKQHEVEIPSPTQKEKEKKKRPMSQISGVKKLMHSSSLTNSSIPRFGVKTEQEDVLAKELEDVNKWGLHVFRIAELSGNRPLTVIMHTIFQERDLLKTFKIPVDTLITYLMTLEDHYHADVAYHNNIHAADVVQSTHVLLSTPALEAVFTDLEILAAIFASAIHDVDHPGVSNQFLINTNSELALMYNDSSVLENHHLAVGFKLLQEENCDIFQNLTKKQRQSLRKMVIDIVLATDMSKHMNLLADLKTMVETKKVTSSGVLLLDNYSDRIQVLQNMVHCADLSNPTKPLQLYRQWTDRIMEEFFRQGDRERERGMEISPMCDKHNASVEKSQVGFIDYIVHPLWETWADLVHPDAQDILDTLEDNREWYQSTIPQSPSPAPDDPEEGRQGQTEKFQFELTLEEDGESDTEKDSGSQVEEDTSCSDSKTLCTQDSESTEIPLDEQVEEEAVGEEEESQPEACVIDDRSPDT
The further procedure and evaluation are performed in exactly the same way as in the above description of the cAMP HTRF® assay for PDE4B.

Where [1] appears, read: human recombinant PDE4B1, cAMP 40 nM, averaged results (Table 5).
The mark [2] stands for this setting: comparative experiments, re-synthesised prior-art compounds (Table 6).

T1 sequence (Q07343 whole entry): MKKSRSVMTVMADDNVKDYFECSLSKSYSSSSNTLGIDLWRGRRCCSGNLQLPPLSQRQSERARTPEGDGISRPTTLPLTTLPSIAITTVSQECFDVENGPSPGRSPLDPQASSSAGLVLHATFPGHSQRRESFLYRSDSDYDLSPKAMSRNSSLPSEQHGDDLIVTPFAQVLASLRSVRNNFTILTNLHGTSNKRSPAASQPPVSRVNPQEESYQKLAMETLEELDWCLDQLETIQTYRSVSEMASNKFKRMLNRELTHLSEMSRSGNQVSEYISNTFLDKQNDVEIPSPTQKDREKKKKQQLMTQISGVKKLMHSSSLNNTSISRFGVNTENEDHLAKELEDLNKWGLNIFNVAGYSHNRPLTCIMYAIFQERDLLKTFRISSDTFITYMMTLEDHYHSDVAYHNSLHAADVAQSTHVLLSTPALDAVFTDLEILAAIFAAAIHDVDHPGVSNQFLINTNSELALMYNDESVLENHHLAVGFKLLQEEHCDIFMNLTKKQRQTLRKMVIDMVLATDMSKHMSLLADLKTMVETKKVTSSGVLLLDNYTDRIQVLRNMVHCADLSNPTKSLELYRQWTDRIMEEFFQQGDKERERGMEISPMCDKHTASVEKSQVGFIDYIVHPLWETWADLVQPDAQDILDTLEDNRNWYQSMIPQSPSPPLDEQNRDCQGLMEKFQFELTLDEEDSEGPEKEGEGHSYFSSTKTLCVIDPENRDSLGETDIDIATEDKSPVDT

As to `O=C(O)Cc1ccc(Nc2nc(-c3ccc(Br)cc3)nc3c2CCC3)cc1` [Compound 1, 2-(4-(2-(4-Bromophenyl)-6,7-dihydro-5H-cyclopenta[d]pyrimidin-4-ylamino)phenyl)acetic acid], at human PDE4B1 (setting [1]), the IC50 (usually the concentration at which inhibition is half-maximal) turned out to be 660 nM.
Turning to `O=C(O)Cc1ccc(Nc2nc(-c3ccc(F)c(F)c3)nc3c2CCC3)cc1` [Compound 2, 2-(4-(2-(3,4-Difluorophenyl)-6,7-dihydro-5H-cyclopenta[d]pyrimidin-4-ylamino)phenyl)acetic acid], the 50% inhibitory concentration (IC50) on human PDE4B1 (setting [1]) was found to be 190 nM.
On to `O=C(O)Cc1ccc(Nc2nc(-c3ccc4occc4c3)nc3c2CCC3)cc1` [Compound 2-1, 2-(4-(2-(Benzofuran-5-yl)-6,7-dihydro-5H-cyclopenta[d]pyrimidin-4-ylamino)phenyl)acetic acid], for which the IC50 on human PDE4B1 (setting [1]) was found to be 740 nM.
Regarding `COc1ccc(-c2nc3c(c(Nc4ccc(CC(=O)O)cc4)n2)CCC3)cc1F` [Compound 3, 2-(4-(2-(3-Fluoro-4-methoxyphenyl)-6,7-dihydro-5H-cyclopenta[d]pyrimidin-4-ylamino)phenyl)acetic acid], the half-maximal inhibitory concentration (IC50) at human PDE4B1 (setting [1]) came out at 120 nM.
Take `COc1ccc(-c2nc3c(c(Nc4ccc(CC(=O)O)cc4)n2)CCC3)cc1Cl` [Compound 4, 2-(4-(2-(3-Chloro-4-methoxyphenyl)-6,7-dihydro-5H-cyclopenta[d]pyrimidin-4-ylamino)phenyl)acetic acid]: on human PDE4B1 (setting [1]), the IC50 stood at 70 nM.
In the case of `O=C(O)Cc1ccc(Nc2nc(-c3ccc(OC(F)F)cc3)nc3c2CCC3)cc1` [Compound 5, 2-(4-(2-(4-(Difluoromethoxy)phenyl)-6,7-dihydro-5H-cyclopenta[d]pyrimidin-4-ylamino)phenyl)acetic acid], at human PDE4B1 (setting [1]), the IC50 is 490 nM.
Take `O=C(O)Cc1ccc(Nc2nc(-c3ccc(OC(F)(F)F)cc3)nc3c2CCC3)cc1` [Compound 6, 2-(4-(2-(4-(Trifluoromethoxy)phenyl)-6,7-dihydro-5H-cyclopenta[a]pyrimidin-4-ylamino)phenyl)acetic acid]: on human PDE4B1 (setting [1]), the half-inhibitory concentration (IC50) was found to be 3100 nM.
Turning to `CCOc1ccc(-c2nc3c(c(Nc4ccc(CC(=O)O)cc4)n2)CCC3)cc1` [Compound 7, 2-(4-(2-(4-Ethoxyphenyl)-6,7-dihydro-5H-cyclopenta[d]pyrimidin-4-ylamino)phenyl)acetic acid], the IC50 on human PDE4B1 (setting [1]) is 600 nM.
`COc1ccc(-c2nc3c(c(Nc4ccc(CC(=O)O)cc4)n2)CCC3)cc1` [Compound 8, 2-(4-(2-(4-Methoxyphenyl)-6,7-dihydro-5H-cyclopenta[d]pyrimidin-4-ylamino)phenyl)acetic acid as 2,2,2-trifluoroacetic acid addition salt]: the IC50 at human PDE4B1 (setting [1]) worked out at 380 nM.
On to `O=C(O)Cc1ccc(Nc2nc(-c3ccc(Cl)cc3)nc3c2CCC3)cc1` [Compound 9, 2-(4-(2-(4-Chlorophenol)-6,7-dihydro-5H-cyclopenta[d]pyrimidin-4-ylamino)phenyl)acetic acid as 2,2,2-trifluoroacetic acid addition salt], for which, at human PDE4B1 (setting [1]), the IC50 worked out at 880 nM.
Turning to `O=C(O)Cc1ccc(Nc2nc(-c3cccc(Cl)c3)nc3c2CCC3)cc1` [Compound 10, 2-(4-(2-(3-Chlorophenyl)-6,7-dihydro-5H-cyclopenta[d]pyrimidin-4-ylamino)phenyl)acetic acid], the IC50 on human PDE4B1 (setting [1]) turned out to be 300 nM.
With `O=C(O)c1ccc(Nc2nc(-c3cccc(Cl)c3)nc3c2CCC3)cc1` [Compound 11, 4-(2-(3-Chlorophenyl)-6,7-dihydro-5H-cyclopenta[d]pyrimidin-4-ylamino)benzoic acid], the IC50 on human PDE4B1 (setting [1]) was 640 nM.
As to `O=C(O)Cc1ccc(Nc2nc(-c3cccc(Cl)c3)nc3c2CCCC3)cc1` [Compound 12, 2-(4-(2-(3-Chlorophenyl)-5,6,7,8-tetrahydroquinazolin-4-ylamino)phenyl)acetic acid], the IC50 on human PDE4B1 (setting [1]) amounted to 550 nM.
For the compound `COc1ccc(-c2nc3c(c(Nc4ccc(C(=O)O)cc4)n2)CCC3)cc1F` [Compound 13, 4-(2-(3-Fluoro-4-Methoxyphenyl)-6,7-Dihydro-5H-Cyclopenta[d]pyrimidin-4-ylamino)benzoic acid], the melting point – broadly, the temperature, or range, at which the solid turns liquid – was > 260 °C. Also, on human PDE4B1 (setting [1]), the IC50 is 210 nM.
On to `COc1ccc(-c2nc3c(c(Nc4ccc(C(=O)O)cc4)n2)CCC3)cc1Cl` [Compound 14, 4-(2-(3-Chloro-4-methoxyphenyl)-6,7-dihydro-5H-cyclopenta[d]pyrimidin-4-ylamino)benzoic acid], for which the melting point is > 260 °C. Moreover, at human PDE4B1 (setting [1]), the 50% inhibitory concentration (IC50) is 140 nM.
On to `O=C(O)c1ccc(Nc2nc(-c3ccc(F)c(F)c3)nc3c2CCC3)cc1` [Compound 15, 4-(2-(3,4-Difluorophenyl)-6,7-dihydro-5H-cyclopenta[d]pyrimidin-4-ylamino)benzoic acid], for which the melting point was > 260 °C. Also, the IC50 at human PDE4B1 (setting [1]) came to 390 nM.
On to `O=C(O)Cc1ccc(Nc2nc(-c3ccccc3)nc3c2CCC3)cc1` [Compound 16, 2-(4-(2-Phenyl-6,7-dihydro-5H-cyclopenta[d]pyrimidin-4-ylamino)phenyl)acetic acid], for which the IC50 on human PDE4B1 (setting [1]) is 690 nM.
On the same count and under the same terms, to `O=C(O)Cc1ccc(Nc2nc(-c3cccc(F)c3)nc3c2CCC3)cc1` [Compound 17, 2-(4-(2-(3-Fluorophenyl)-6,7-dihydro-5H-cyclopenta[d]pyrimidin-4-ylamino)phenyl)acetic acid] belongs 210 nM.
On the same count and under the same terms, next, `O=C(O)Cc1ccc(Nc2nc(-c3cccc(Br)c3)nc3c2CCC3)cc1` [Compound 18, 2-(4-(2-(3-Bromophenyl)-6,7-dihydro-5H-cyclopenta[d]pyrimidin-4-ylamino)phenyl)acetic acid]: 220 nM; `O=C(O)c1ccc(Nc2nc(-c3cccc(Cl)c3)nc3c2CCCC3)cc1` [Compound 19, 4-(2-(3-Chlorophenyl)-5,6,7,8-tetrahydroquinazoline-4-ylamino)benzoic acid]: 2140 nM.
On to `C=CCc1c(C)nc(-c2ccc(OC)cc2)nc1Nc1ccc(CC(=O)O)cc1` [Compound S1, reference compound], for which the half-maximal inhibitory concentration (IC50) on human recombinant PDE4D2 (comparative experiments, re-synthesised prior-art compounds (Table 6), read-out: PDE4D IC50) was > 10000 nM; at human PDE4B1 (setting [2]), 3600 nM.
For the compound `C=CCc1c(C)nc(-c2ccccc2)nc1Nc1ccc(C(=O)O)cc1` [Compound S2, reference compound], the IC50 was 1300 nM on human recombinant PDE4D2 and 1100 nM on human PDE4B1 (setting [2]).

The values are drawn from patent US9505724B2, “4-amino substituted condensed pyrimidine compounds as PDE4 inhibitors” (GRÜNENTHAL GMBH, priority 2013, dated 2016).
